Data on 22 compounds can be found in patent US20230295201A1 (Gilead Sciences, Inc., priority 2020, published 2023).

Where two headings read alike, the source gives them in different places. A value given as a limit tells only on which side of the number the result lay.

What all share (assay type): cell-based
Experiment [1] concerns HRV16. Description: HRV16 HELA EC50 (cytopathic effect in H1-HeLa cells). The procedure, abridged: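 H1-HeLa cells seeded one day before, given 3-fold serial compound dilutions in triplicate just prior to infection with pre-titrated virus. Incubated 96 h at 33 °C/5% CO2; protection from cytopathic effect read as viability by CellTiter-Glo luminescence, normalised to infected untreated (0%) and uninfected (100%) controls.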

The subject of experiment [2] is RSV strain A2. Description: RSV HEp-2 EC50 (infectious cytopathic cell protection assay). The conditions noted are these: read-out: RSV HEp-2 EC50. The gist of the method:
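HEp-2 cells mixed with titered RSV A2 at 50,000 cells/ml were added to plates holding 3-fold serial compound dilutions in DMSO, then incubated 4 days at 37° C. Cytoprotection was read as cell viability by CellTiter-Glo luminescence and converted to percent inhibition against 0% and 100% inhibition controls.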

The subject of experiment [3] is DENV2 replicon. Briefly: DENV-2 Huh-7 Rep EC50 (replicon luminescence). Conditions: read-out: DENV-2 Huh-7 Rep EC50. The gist of the method: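 Huh-7 cells carrying a DENV2 replicon, 5,000 cells/well, were incubated with dosed compounds for 48 h at 37° C. EnduRen live-cell substrate was added 1.5 h before luminescence reading. EC50 came from dose-response against DMSO-only wells.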
Background: A replicon is a self-replicating genome or part of one, used to study replication in cells.

The subject of experiment [4] is RSV A2. Briefly: RSV NHBE EC50 (RSV A2 antiviral assay in normal human bronchial epithelial cells). The conditions noted are these: read-out: RSV NHBE EC50.
Where [5] appears, read: H1-HeLa cells, 96 h, 33° C.; read-out: HRV16 HELA EC50.
Setting [6] is: Dengue virus, DENV2, Huh-7, 48 h.
The mark [7] stands for this setting: 96 h, H1-HeLa cells, 33° C., read-out: HRV16 HELA EC50.
Where [8] appears, read: human respiratory syncytial virus, HEp-2, 96 h, HEp-2 cells, RSV A2, 4 days.
Setting [9] is: Dengue virus, DENV2, Huh-7, 48 h, Huh-7 replicon cells, 48 hours.
[10] abbreviates: human respiratory syncytial virus, NHBE, 96 h, NHBE cells, RSV A2, 4 days.
The mark [11] stands for this setting: 96 h, read-out: HRV16 HELA EC50.
Where [12] appears, read: human respiratory syncytial virus, HEp-2, 96 h.
Setting [13] is: human respiratory syncytial virus, NHBE, 96 h.

The term EC50 denotes the concentration needed to bring the measured effect to its halfway point. With `CCC(CC)COC(=O)[C@H](C)NP(=O)(N[C@@H](C)C(=O)OC)OC[C@@]1(C#N)O[C@@H](c2ccc3c(N)ncnn23)[C@H](O)[C@@H]1O` (mixture of isomers) [Example 221, 2-Ethylbutyl ((((2R,3S,4R,5S)-5-(4-aminopyrrolo[2,1-f][1,2,4]triazin-7-yl)-2-cyano-3,4-dihydroxytetrahydrofuran-2-yl)methoxy)(((S)-1-methoxy-1-oxopropan-2-yl)amino)phosphoryl)-L-alaninate], the concentration giving a half-maximal response (EC50) in experiment [1] (setting [5]) was 8.49 µM; in experiment [2] (human respiratory syncytial virus, 96 h, HEp-2 cells, RSV A2, 4 days), 1.18 µM; in experiment [3] (setting [6]), greater than 100 µM; in experiment [4] (human respiratory syncytial virus, 96 h, NHBE cells, RSV A2, 4 days), greater than 1.05 µM.

With `CC(C)OC(=O)[C@H](C)N[P@](=O)(OC[C@@]1(C#N)O[C@@H](c2ccc3c(N)ncnn23)[C@H](O)[C@@H]1O)Oc1ccccc1` (single isomer, unassigned) [Example 1], the EC50 was 0.966 µM in experiment [1] (setting [7]), 0.342 µM in experiment [2] (setting [8]), greater than 50 µM in experiment [3] (setting [9]) and 0.879 µM in experiment [4] (setting [10]).

For `CC(C)(C)C(=O)OCCNP(=O)(OCC1(C#N)OC(c2ccc3c(N)ncnn23)C(O)C1O)Oc1ccccc1` (single isomer, unassigned) [Example 12], the EC50 in experiment [1] (setting [5]) is 1.93 µM; in experiment [2] (HEp-2 cells, RSV A2, 4 days), 0.244 µM; in experiment [3] (Huh-7 replicon cells, 48 hours), greater than 50 µM; in experiment [4] (NHBE cells, RSV A2, 4 days), 0.029 µM.

With `C[C@H](N[P@@](=O)(OC[C@@]1(C#N)O[C@@H](c2ccc3c(N)ncnn23)[C@H](O)[C@@H]1O)Oc1ccccc1)C(=O)O[C@H]1CC[C@H](C(F)(F)F)CC1` (single isomer, unassigned) [Example 17], the half-maximal effective concentration (EC50) in experiment [1] (setting [7]) is 0.489 µM; in experiment [2] (setting [8]) it was 0.308 µM; in experiment [3] (setting [9]) it was 53.7 µM; in experiment [4] (setting [10]), 0.088 µM.

For the compound `CCCOC(=O)C(C)NP(=O)(OCC1(C#N)OC(c2ccc3c(N)ncnn23)C(O)C1O)Oc1ccccc1` (single isomer, unassigned) [Example 46], the 50% effective concentration (EC50) is 0.487 µM in experiment [1] (setting [5]); 0.082 µM in experiment [2] (HEp-2 cells, RSV A2, 4 days); greater than 20.8 µM in experiment [3] (Huh-7 replicon cells, 48 hours); 0.393 µM in experiment [4] (NHBE cells, RSV A2, 4 days).

With `CCCOC(=O)C(C)NP(=O)(OCC1(C#N)OC(c2ccc3c(N)ncnn23)C(O)C1O)Oc1ccccc1` (single isomer, unassigned) [Example 47], the EC50 in experiment [1] (setting [5]) turned out to be 0.56 µM; in experiment [2] (HEp-2 cells, RSV A2, 4 days), 0.051 µM; in experiment [3] (Huh-7 replicon cells, 48 hours) it was 9.19 µM; in experiment [4] (NHBE cells, RSV A2, 4 days), 0.162 µM.

Consider `C[C@H](NP(=O)(OC[C@@]1(C#N)O[C@@H](c2ccc3c(N)ncnn23)[C@H](O)[C@@H]1O)Oc1ccccc1)C(=O)OC1CCC1` (single isomer, unassigned) [Example 50], for which the EC50 in experiment [1] (setting [7]) was found to be 0.464 µM; in experiment [2] (setting [8]), 0.044 µM; in experiment [3] (setting [9]) it was 6.92 µM; in experiment [4] (setting [10]) it was 0.498 µM.

For `C[C@H](NP(=O)(OC[C@@]1(C#N)O[C@@H](c2ccc3c(N)ncnn23)[C@H](O)[C@@H]1O)Oc1ccccc1)C(=O)OC1CCOCC1` (single isomer, unassigned) [Example 56], the EC50 in experiment [1] (setting [7]) was 7.96 µM; in experiment [2] (HEp-2 cells, RSV A2, 4 days), 4.17 µM; in experiment [3] (setting [9]), greater than 50 µM; in experiment [4] (setting [10]) it was 2.24 µM.

With `C[C@H](NP(=O)(OC[C@@]1(C#N)O[C@@H](c2ccc3c(N)ncnn23)[C@H](O)[C@@H]1O)Oc1ccccc1)C(=O)OC1CCOCC1` (single isomer, unassigned) [Example 57], the EC50 in experiment [1] (setting [5]) was 5.48 µM; in experiment [2] (HEp-2 cells, RSV A2, 4 days), 1.49 µM; in experiment [3] (Huh-7 replicon cells, 48 hours), greater than 50 µM; in experiment [4] (NHBE cells, RSV A2, 4 days) it was greater than 4.18 µM.

Regarding `CC(C)OC(=O)[C@H](C)N[P@@](=O)(OC[C@@]1(C#N)O[C@@H](c2ccc3c(N)ncnn23)[C@H](O)[C@@H]1O)Oc1ccccc1` (single isomer, unassigned) [Example 78], the half-maximal effective concentration (EC50) in experiment [1] (setting [7]) was 2.26 µM; in experiment [2] (setting [8]), 2.04 µM; in experiment [3] (setting [9]), greater than 50 µM; in experiment [4] (setting [10]), 1.77 µM.

With `CCC(CC)COC(=O)[C@@H](C)NP(=O)(OC[C@@]1(C#N)O[C@@H](c2ccc3c(N)ncnn23)[C@H](O)[C@@H]1O)Oc1ccccc1` (single isomer, unassigned) [Example 84], the concentration for a half-maximal effect (EC50) in experiment [1] (setting [5]) is 19.9 µM; in experiment [2] (HEp-2 cells, RSV A2, 4 days), 8.07 µM; in experiment [3] (Huh-7 replicon cells, 48 hours), greater than 50 µM; in experiment [4] (NHBE cells, RSV A2, 4 days) it was 1.13 µM.

On to `CC[C@H](NP(=O)(OC[C@@]1(C#N)O[C@@H](c2ccc3c(N)ncnn23)[C@H](O)[C@@H]1O)Oc1ccccc1)C(=O)OC1CCCC1` (single isomer, unassigned) [Example 111], for which the EC50 in experiment [1] (setting [7]) was 25.3 µM; in experiment [2] (HEp-2 cells, RSV A2, 4 days), 3.97 µM; in experiment [3] (setting [9]) it was greater than 50 µM; in experiment [4] (NHBE cells, RSV A2, 4 days), greater than 1.48 µM.

As for `N#C[C@]1(COP(=O)(NCC(=O)OC2CCCC2)Oc2ccccc2)O[C@@H](c2ccc3c(N)ncnn23)[C@H](O)[C@@H]1O` (single isomer, unassigned) [Example 113], the concentration for a half-maximal effect (EC50) in experiment [1] (setting [7]) turned out to be 2.64 µM; in experiment [2] (setting [8]) it was 0.611 µM; in experiment [3] (setting [9]), 42.7 µM; in experiment [4] (setting [10]), 0.352 µM.

For `N#C[C@]1(COP(=O)(NCC(=O)OC2CCCC2)Oc2ccccc2)O[C@@H](c2ccc3c(N)ncnn23)[C@H](O)[C@@H]1O` (single isomer, unassigned) [Example 114], the EC50 in experiment [1] (setting [5]) was 4.7 µM; in experiment [2] (HEp-2 cells, RSV A2, 4 days), 0.974 µM; in experiment [3] (Huh-7 replicon cells, 48 hours), greater than 50 µM; in experiment [4] (NHBE cells, RSV A2, 4 days), 0.255 µM.

`CCC(CC)COC(=O)[C@H](CC(C)C)NP(=O)(OC[C@@]1(C#N)O[C@@H](c2ccc3c(N)ncnn23)[C@H](O)[C@@H]1O)Oc1ccccc1` (single isomer, unassigned) [Example 129]: the EC50 in experiment [1] (setting [7]) is 41.6 µM; in experiment [2] (HEp-2 cells, RSV A2, 4 days), 42.9 µM; in experiment [3] (setting [9]), 26.7 µM; in experiment [4] (NHBE cells, RSV A2, 4 days), greater than 5 µM.

Regarding `C[C@H](NP(=O)(OC[C@@]1(C#N)O[C@@H](c2ccc3c(N)ncnn23)[C@H](O)[C@@H]1O)Oc1ccccc1)C(=O)OC1CCCCCC1` (single isomer, unassigned) [Example 136], the 50% effective concentration (EC50) in experiment [1] (setting [7]) amounted to 0.577 µM; in experiment [2] (HEp-2 cells, RSV A2, 4 days), 2.77 µM; in experiment [3] (setting [9]), 51.1 µM; in experiment [4] (NHBE cells, RSV A2, 4 days) it was 0.095 µM.

For `C[C@H](NP(=O)(OC[C@@]1(C#N)O[C@@H](c2ccc3c(N)ncnn23)[C@H](O)[C@@H]1O)Oc1ccccc1)C(=O)OC1CCC(F)(F)CC1` (single isomer, unassigned) [Example 176], the EC50 in experiment [1] (setting [7]) was determined as 0.547 µM; in experiment [2] (HEp-2 cells, RSV A2, 4 days) it was 0.161 µM; in experiment [3] (Huh-7 replicon cells, 48 hours), 28.6 µM; in experiment [4] (NHBE cells, RSV A2, 4 days), 1.64 µM.

As for `C[C@H](NP(=O)(OC[C@@]1(C#N)O[C@@H](c2ccc3c(N)ncnn23)[C@H](O)[C@@H]1O)Oc1ccccc1)C(=O)O[C@H]1CC[C@@H](C(F)(F)F)CC1` (single isomer, unassigned) [Example 180], the 50% effective concentration (EC50) in experiment [1] (setting [7]) is 0.851 µM; in experiment [2] (HEp-2 cells, RSV A2, 4 days) it was 0.142 µM; in experiment [3] (setting [9]), 6.62 µM; in experiment [4] (NHBE cells, RSV A2, 4 days), 0.833 µM.

In the case of `C[C@@H](NP(=O)(OC[C@@]1(C#N)O[C@@H](c2ccc3c(N)ncnn23)[C@H](O)[C@@H]1O)Oc1ccccc1)C(=O)O[C@H]1CC[C@H](C(F)(F)F)CC1` (single isomer, unassigned) [Example 195], the concentration giving a half-maximal response (EC50) in experiment [1] (setting [5]) was 2.55 µM; in experiment [2] (setting [8]) it was 2.59 µM; in experiment [3] (setting [9]), greater than 100 µM; in experiment [4] (setting [10]), 0.678 µM.

Regarding `CCC(CC)COC(=O)[C@H](C)N[P@@](=O)(OC[C@@]1(C#N)O[C@@H](c2ccc3c(N)ncnn23)[C@H](O)[C@@H]1O)Oc1ccccc1` (single isomer, unassigned) [Example 207], the EC50 worked out at 0.183 µM in experiment [1] (setting [7]), 0.124 µM in experiment [2] (setting [8]), 4.84 µM in experiment [3] (setting [9]) and 0.091 µM in experiment [4] (setting [10]).

In the case of `CCOC(=O)C1CCCN1P(=O)(OC[C@@]1(C#N)O[C@@H](c2ccc3c(N)ncnn23)[C@H](O)[C@@H]1O)Oc1ccccc1` (stereo in doubt) [Example 117, (2R)-ethyl 1-((((2R,3S,4R,5S)-5-(4-aminopyrrolo[2,1-f][1,2,4]triazin-7-yl)-2-cyano-3,4-dihydroxytetrahydrofuran-2-yl)methoxy)(phenoxy)phosphoryl)pyrrolidine-2-carboxylate], the concentration for a half-maximal effect (EC50) in experiment [1] (setting [11]) was greater than 100 µM; in experiment [2] (setting [12]), greater than 100 µM; in experiment [3] (setting [6]), greater than 100 µM; in experiment [4] (setting [13]) it was greater than 5 µM.

With `CCCCOC(=O)C1CCCN1P(=O)(OC[C@@]1(C#N)O[C@@H](c2ccc3c(N)ncnn23)[C@H](O)[C@@H]1O)Oc1ccccc1` (stereo in doubt) [Example 124, (2R)-butyl 1-((((2R,3S,4R,5S)-5-(4-aminopyrrolo[2,1-f][1,2,4]triazin-7-yl)-2-cyano-3,4-dihydroxytetrahydrofuran-2-yl)methoxy)(phenoxy)phosphoryl)pyrrolidine-2-carboxylate], the 50% effective concentration (EC50) is greater than 86.4 µM in experiment [1] (setting [11]), greater than 100 µM in experiment [2] (setting [12]), greater than 100 µM in experiment [3] (setting [6]) and greater than 5 µM in experiment [4] (setting [13]).
